Structures are written as SMILES.

The species named for the experiment is Cavia porcellus. Put plainly: Tested for inhibition of field-stimulation-induced contraction in the isolated guinea pig ileum. It counts as functional. To be noted: read-out: ID50 (the source's name).
For the molecule `CCCN(CCC)C1CCc2cccc(O)c2C1` (racemic) [8-OH-DPAT], the IC50 worked out at 60 nM.

Take `Cc1ccc2c(c1)-c1cccc3c1[C@H](C2)N(C)CC3`: the IC50 stood at 1200 nM.

On to `Cc1ccc2c(c1)-c1cccc3c1[C@@H](C2)N(C)CC3`, for which the IC50 was 6800 nM.

Values taken from ChEMBL document CHEMBL1127044, “Preparation and pharmacological evaluation of enantiomers of certain nonoxygenated aporphines: (+)- and (-)-aporphine and (+)- and (-)-10-methylaporphine” (1993).
